Here are results for two compounds from paper PMC7203735, “Characterization of an A-Type Muscarinic Acetylcholine Receptor and Its Possible Non-neuronal Role in the Oriental Armyworm, Mythimna separata Walker (Lepidoptera: Noctuidae)” (Frontiers in Physiology, 2020).

The assay addresses T1, Ms A-type mAChR (Ms A-mAChR) (Mythimna separata, UniProt A0A2D1QUJ3).
T1 sequence (A0A2D1QUJ3 1-601): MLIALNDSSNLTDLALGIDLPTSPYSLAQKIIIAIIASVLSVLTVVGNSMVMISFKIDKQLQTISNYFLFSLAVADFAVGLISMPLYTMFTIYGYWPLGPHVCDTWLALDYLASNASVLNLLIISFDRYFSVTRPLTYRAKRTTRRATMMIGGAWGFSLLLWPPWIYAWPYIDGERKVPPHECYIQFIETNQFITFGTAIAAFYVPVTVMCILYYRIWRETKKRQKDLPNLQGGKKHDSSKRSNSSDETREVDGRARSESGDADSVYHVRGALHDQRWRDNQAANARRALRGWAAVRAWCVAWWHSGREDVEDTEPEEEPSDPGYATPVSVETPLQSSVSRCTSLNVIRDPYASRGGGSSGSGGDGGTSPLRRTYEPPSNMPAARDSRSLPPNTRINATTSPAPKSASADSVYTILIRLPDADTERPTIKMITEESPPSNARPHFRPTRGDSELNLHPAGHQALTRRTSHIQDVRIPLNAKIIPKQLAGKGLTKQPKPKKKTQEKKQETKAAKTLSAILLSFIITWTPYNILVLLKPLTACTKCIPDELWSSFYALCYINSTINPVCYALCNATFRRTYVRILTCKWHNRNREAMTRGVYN
Put plainly: FLIPR calcium mobilization in transfected HEK […] cells. Type of assay: cell-based. In general terms: Calcium flux is commonly read through the fluorescence of an indicator in the cells.

Structures are written as SMILES. Read-outs that look alike come from different tables or passages of the source.

As usually defined, the EC50 is the concentration giving half of the maximal effect. As for `C[C@@H]1O[C@H](C[N+](C)(C)C)C[C@H]1O` [muscarine], the EC50 worked out at 388 nM.

Consider `C[N+](C)(C)CCOC(N)=O` [carbachol], for which the EC50 (read-out: EC50) is 125 nM.
